The target in experiment [1] is T1, μ-opioid receptor (Homo sapiens (Human), UniProt P35372). Description: μ-opioid receptor radioligand dose-displacement binding assay ([3H]-diprenorphine). Here is the method: μ-Opioid Receptor Binding Assay Procedures: Radioligand dose-displacement binding assays for μ-opioid receptors used 0.3 nM [^3H]-diprenorphine (Perkin Elmer, Shelton, Conn.), with […] membrane protein/well in a final volume of 500 μl binding buffer (10 mM MgCl2, 1 mM EDTA, 5% DMSO, 50 mM HEPES, pH 7.4). Reactions were carried out in the absence or presence of increasing concentrations of unlabeled naloxone. All reactions were conducted in 96-deep well polypropylene plates for 2 hours at room temperature. Binding reactions were terminated by rapid filtration onto 96-well Unifilter GF/C filter plates (Perkin Elmer, Shelton, Conn.), presoaked in 0.5% polyethylenimine using a 96-well tissue harvester (Perkin Elmer, Shelton, Conn.) followed by performing three filtration washes with 500 μl of ice-cold binding buffer. Filter plates were subsequently dried at 50° C. for 2-3 hours. BetaScint scintillation cocktail (Perkin Elmer, Shelton, Conn.) was added (50 μl/well), and plates were counted using a Packard Top-Count for 1 min/well. The data were analyzed using the one-site competition curve fitting functions in GraphPad PRISM™ v. 3.0 or higher (San Diego, Calif.), or an in-house function for one-site competition curve-fitting.
(§1) In TABLE 1, binding affinity of certain Compounds of the Invention to the μ-, δ- and κ-opioid receptors was determined as described above.

A further experiment concerns the target κ opioid receptor (Homo sapiens (Human), UniProt P41145). The experiment in a line: κ-opioid receptor [35S]GTPγS functional assay, HEK-293 or CHO cells. It counts as biochemical. Here is the method:
κ-Opioid Receptor Functional Assay Procedures: Functional [^35S]GTPγS binding assays were conducted as follows. κ opioid receptor membrane solution was prepared by sequentially adding final concentrations of 0.026 μg/μl κ membrane protein (in-house), 10 μg/mL saponin, 3 μM GDP and 0.20 nM [^35S]GTPγS to binding buffer (100 mM NaCl, 10 mM MgCl2, 20 mM HEPES, pH 7.4) on ice. The prepared membrane solution (190 μl/well) was transferred to 96-shallow well polypropylene plates containing 10 μl of 20× concentrated stock solutions of agonist prepared in DMSO. Plates were incubated for 30 min at a temperature of about 25° C. with shaking. Reactions were terminated by rapid filtration onto 96-well Unifilter GF/B filter plates (Perkin Elmer, Shelton, Conn.) using a 96-well tissue harvester (Packard) and followed by three filtration washes with 200 μl ice-cold binding buffer (10 mM NaH2PO4, 10 mM Na2HPO4, pH 7.4). Filter plates were subsequently dried at 50° C. for 2-3 hours. Fifty μl/well scintillation cocktail (Perkin Elmer, Shelton, Conn.) was added and plates were counted in a Packard Top-Count for 1 min/well.
κ-Oploid Receptor Functional Data: κ GTP EC50 is the concentration of a compound providing 50% of the maximal response for the compound at a K receptor.
κ GTP Emax (%) is the maximal effect elicited by a compound relative to the effect elicited by U69,593.
(§2) In TABLE 2, activity response of certain Compounds of the Invention to the μ-, δ- and κ-opioid receptors was determined as described above for functional assays using HEK-293 or CHO cells.
Background: Binding of GTPγS marks nucleotide exchange on a G protein.

The target of experiment [2] is recombinant human kappa opioid receptor (κ) (Homo sapiens (Human), UniProt P41145). Description: κ-opioid receptor radioligand dose-displacement binding assay ([3H]-U69,593). Here is the method: κ-Opioid Receptor Binding Assay Procedures: Membranes from HEK-293 cells, CHO or U-2 OS cells expressing the recombinant human kappa opioid receptor (κ) (cloned in house) were prepared by lysing cells in ice cold hypotonic buffer (2.5 mM MgCl2, 50 mM HEPES, pH 7.4) (10 mL/10 cm dish) followed by homogenization with a tissue grinder/Teflon pestle. Membranes were collected by centrifugation at 30,000×g for 15 min at 4° C. and pellets were resuspended in hypotonic buffer to a final concentration of 1-3 mg/mL. Protein concentrations were determined using the BioRad protein assay reagent with bovine serum albumen as standard. Aliquots of κ receptor membranes were stored at −80° C.
Radioligand dose displacement assays used 0.4 nM [^3H]-U69,593 (GE Healthcare, Piscataway, N.J.; 40 Ci/mmole) with 15 μg membrane protein (recombinant κ opioid receptor expressed in HEK 293 cells; in-house prep) in a final volume of 200 μl binding buffer (5% DMSO, 50 mM Trizma base, pH 7.4). Non-specific binding was determined in the presence of 10 μM unlabeled naloxone or U69,593. All reactions were performed in 96-well polypropylene plates for 1 hour at a temperature of about 25° C. Binding reactions were terminated by rapid filtration onto 96-well Unifilter GF/C filter plates (Perkin Elmer, Shelton, Conn.) presoaked in 0.5% polyethylenimine (Sigma). Harvesting was performed using a 96-well tissue harvester (Perkin Elmer, Shelton, Conn.) followed by five filtration washes with 200 μl ice-cold binding buffer. Filter plates were subsequently dried at 50° C. for 1-2 hours. Fifty μl/well scintillation cocktail (Perkin Elmer, Shelton, Conn.) was added and plates were counted in a Packard Top-Count for 1 min/well.
as §1

Experiment [3] addresses T1, μ-opioid receptor. Description: μ-opioid receptor [35S]GTPγS functional assay, HEK-293 or CHO cells. It counts as biochemical. Here is the method:
μ-Opioid Receptor Functional Assay Procedures: [^35S]GTPγS functional assays were conducted using freshly thawed μ-receptor membranes prepared in-house from a cell line expressing recombinant μ opioid receptor in a HEK-293, CHO or U-2 OS cell background, or purchased from a commercial source (Perkin Elmer, Shelton, Conn.; or DiscovRx, Fremont, Calif.). Assay reactions were prepared by sequentially adding the following reagents to binding buffer (100 mM NaCl, 10 mM MgCl2, 20 mM HEPES, pH 7.4) on ice (final concentrations indicated): membrane protein (0.026 mg/mL), saponin ([…]), GDP ([…]) and [^35S]GTPγS (0.20 nM; Perkin Elmer, Shelton, Conn.). The prepared membrane solution (190 μl/well) was transferred to 96-shallow well polypropylene plates containing 10 μl of 20× concentrated stock solutions of the agonist [D-Ala^2, N-methyl-Phe^4 Gly-ol^5]-enkephalin (DAMGO) prepared in dimethyl sulfoxide (DMSO). Plates were incubated for 30 min at about 25° C. with shaking. Reactions were terminated by rapid filtration onto 96-well Unifilter GF/B filter plates (Perkin Elmer, Shelton, Conn.) using a 96-well tissue harvester (Perkin Elmer, Shelton, Conn.) followed by three filtration washes with 200 μl of ice-cold wash buffer (10 mM NaH2PO4, 10 mM Na2HPO4, pH 7.4). Filter plates were subsequently dried at 50° C. for 2-3 hours. BetaScint scintillation cocktail (Perkin Elmer, Shelton, Conn.) was added (50 μl/well) and plates were counted using a Packard Top-Count for 1 min/well. Data were analyzed using the sigmoidal dose-response curve fitting functions in GraphPad PRISM v. 3.0, or an in-house function for non-linear, sigmoidal dose-response curve-fitting.
μ-Opioid Receptor Functional Data: μ GTP EC50 is the concentration of a compound providing 50% of the maximal response for the compound at a μ-opioid receptor.
μ GTP Emax (%) is the maximal effect elicited by a compound relative to the effect elicited by DAMGO, a standard μ agonist. Generally, the μ GTP Emax (%) value measures the efficacy of a compound to treat or prevent pain or other Conditions.
as §2

As for `O=C1C[C@]23CCN(CC4CC4)[C@H](Cc4ccc(O)cc42)C3=CN1Cc1ccc(O)cc1` [Compound 6, (5R,10bR)-13-(cyclopropylmethyl)-9-hydroxy-3-(4-hydroxybenzyl)-5,6-dihydro-1H-5,10b-(epiminoethano)benzo[f]isoquinolin-2(3H)-one], the Ki (as a rule, a dissociation constant, usually derived from enzyme kinetics or from competition with a known ligand) at μ-opioid receptor [1] worked out at 22.8 ± 8.32 nM; in experiment [2], 1.27 ± 0.19 nM. For the same compound, the EC50 (in general, the midpoint of the concentration-response curve) at κ opioid receptor (GTPγS) was determined as 30.6 ± 6.75 nM; at μ-opioid receptor [3] (GTPγS), 57.5 ± 15.5 nM. In addition, the Emax – broadly, the maximal effect, on the per cent scale that the assay sets – stood at 41.7% at κ opioid receptor (relative to U69,593) and 28% on μ-opioid receptor [3] (relative to DAMGO).
